Molecules are shown by their SMILES. In brackets after ≈: the same amount, converted by molar mass. Activity calls are given as the source filed them. The calls are words filed in the database; no cut-off is given here.

The subject of experiment [1] is BC1 cell line. Description: Cytotoxic activity against human breast cancer cells of BC-1 cell lines; NA means inactive at 20 ug/mL. In kind it is functional, cell-based.
Experiment [2] concerns KB. Description: Cytotoxic activity against human epidermoid carcinoma cells of KB cell lines in mouth; NA means inactive at 20 ug/mL. In kind it is functional, cell-based.
Experiment [3] concerns Mycobacterium tuberculosis. Description: Antimycobacterial activity was assessed against Mycobacterium tuberculosis H37Ra using theMicroplate Alamar Blue Assay (MABA). In kind it is functional. In general terms: Alamar Blue is a resazurin reagent that responds to reducing activity.
Experiment [4] concerns Plasmodium falciparum. Description: Antimalarial activity against multidrug-resistant Plasmodium falciparum K1. In kind it is functional, organism-based.
The subject of experiment [5] is Mycobacterium tuberculosis. Description: Antimycobacterial activity was assessed against Mycobacterium tuberculosis H37Ra using theMicroplate Alamar Blue Assay (MABA); NA means inactive at 200 ug/mL. Type of experiment: functional, organism-based.
Experiment [6] relates to Plasmodium falciparum. As to the kind of experiment: Antimalarial activity against multidrug-resistant Plasmodium falciparum K1; Not active at 20 ug/mL. Type of experiment: functional, organism-based.
In experiment [7] the test system is BC1 cell line. Description: Cytotoxic activity against human breast cancer cells of BC-1 cell lines. In kind it is functional, cell-based.
In experiment [8] the test system is KB. Description: Cytotoxic activity against human epidermoid carcinoma cells of KB cell lines in mouth. Type of experiment: functional, cell-based.

With `C/C(=C\[C@H](O)[C@H](O)[C@H](C)C1=CC[C@@]2(C)C[C@@H]3[C@H](C)CC[C@@H]3/C(C(=O)O)=C\C[C@H]12)C(=O)O`, the IC50 entry is “Not Active” in experiment [1], “Not Active” in experiment [2] and 13 µg/mL (≈ 30.1 µM) in experiment [4]. In experiment [3], this compound displayed an MIC of 200 µg/mL (≈ 462 µM).
In the case of `CCCCC/C=C(/C(=O)O)C(C)C(=O)OC` (centres undefined), the concentration for half-maximal inhibition (IC50) result in experiment [1], in experiment [2] and in experiment [6] was “Not Active” in each case. The MIC entry in experiment [5] was “inactive”.
For the compound `C/C(=C\C1OC(C)(C)O[C@@H]1[C@H](C)C1=CC[C@@]2(C)C[C@@H]3[C@H](C)CC[C@@H]3/C(C(=O)O)=C\C[C@H]12)C(=O)O` (some centres undefined), the IC50 entry in experiment [1] was “Not Active”; in experiment [2], “Not Active”; in experiment [4], 19 µg/mL (≈ 40.2 µM). In experiment [3], this compound displayed a minimal inhibitory concentration (MIC) of 200 µg/mL (≈ 423 µM).
With `CCCCC/C=C(/C(=O)O)C(C)C(=O)O` (centres undefined), the IC50 is 5 µg/mL (≈ 23.3 µM) in experiment [7], 13 µg/mL (≈ 60.7 µM) in experiment [8] and “Not Active” in experiment [6]. For the same compound, in experiment [5], the MIC entry was “inactive”.
Regarding `CC(=O)O[C@@H]1/C=C/[C@@](C)(O)C(=O)[C@@H](C)C/C=C/[C@H]2[C@@H]3O[C@]3(C)[C@@H](C)[C@H]3[C@H](Cc4ccccc4)NC(=O)[C@@]312` [CYTOCHALASIN Q], the values for the IC50 in experiment [7], in experiment [8] and in experiment [4] were 1 µg/mL (≈ 1.97 µM), 3 µg/mL (≈ 5.91 µM) and 17 µg/mL (≈ 33.5 µM), respectively. For the same compound, the MIC result in experiment [5] is “inactive”.
Taken in the same sequence, the figures for `C[C@H]1Cc2c(C(=O)O)ccc(O)c2C(=O)O1` were 3 µg/mL (≈ 13.5 µM), 3 µg/mL (≈ 13.5 µM), 4 µg/mL (≈ 18 µM) and “inactive”.

By IC50 is commonly meant the point on the concentration scale where inhibition reaches its midpoint. By MIC is commonly meant the lowest concentration that inhibits growth of the organism.
